From patent publication US9351955B2, “Compounds and pharmaceutical compositions thereof for the treatment of cystic fibrosis” (Galapagos NV, priority 2013, dated 2016) come the findings set out here.

Holding throughout (type): cell-based
For experiment [1], the target named is T1, CFTR ΔF508 mutant (Homo sapiens, UniProt P13569, DEL508-508).
T1 construct: expressed in transfected cells; host or cells: CFBE41o- (adenoviral transduction)
Kind of experiment: YFP-halide influx assay for the CFTR-ΔF508 mutation (96 well, CFBE41o- cells). The following applies: compounds of the invention, 96 well, forskolin 10.67 μM, read-out: EC50 measured by YFP-halide influx assay for the CFTR-ΔF508. The procedure, abridged: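 CFBE41o- cells were adenovirally transduced with CFTR ΔF508 and the halide-sensitive YFP H148Q/I152L. They were then corrected either at 27 °C for 24 h or with a CFTR modulator for 24 h at 37 °C. After iodide injection, YFP quenching over 7 s was expressed as 1−F/F0, and EC50 was derived from the concentration–response plot.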

Experiment [2] addresses T1, CFTR ΔF508 mutant. Kind of experiment: YFP-halide influx assay for the CFTR-ΔF508 mutation (384 well, CFBE41o- cells, FDSS/μCell). To be noted: forskolin 10.67 μM, fluorescence after 36 seconds, read-out: EC50 measured by YFP-halide influx assay for the CFTR-ΔF508. In a few lines: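 CFBE41o- cells were adenovirally transduced with ΔF508 CFTR and the YFP H148Q/I152L reporter. Cells were then held 24 h at 27 °C or treated 24 h at 37 °C with a CFTR modulator. Iodide-induced quench was recorded for 2 min, and EC50 was derived from 1−F/F0 at 36 s against compound concentration.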

The next experiment has as its target T2, CFTR G551D mutant (Homo sapiens, UniProt P13569, G551D).
T2 construct: expressed in transfected cells; host or cells: HEK293 (reverse transfection with plasmids)
Briefly: YFP-halide influx assay for the CFTR-G551D mutation (HEK293 cells). The following applies: HEK293 cells expressing CFTR G551D and YFP reporter; forskolin 10.67 μM; read-out: EC50 measured by YFP-halide influx assay for the CFTR-G551D. In a few lines: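 HEK293 cells reverse-transfected with CFTR G551D and halide-sensitive YFP, expressed 24 h at 37 °C. Iodide-induced fluorescence quench recorded for 7 s after I^− injection; response as 1−F/F0, EC50 from concentration plot.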

T1 sequence (P13569 with tags, fused parts or gaps DEL508-508): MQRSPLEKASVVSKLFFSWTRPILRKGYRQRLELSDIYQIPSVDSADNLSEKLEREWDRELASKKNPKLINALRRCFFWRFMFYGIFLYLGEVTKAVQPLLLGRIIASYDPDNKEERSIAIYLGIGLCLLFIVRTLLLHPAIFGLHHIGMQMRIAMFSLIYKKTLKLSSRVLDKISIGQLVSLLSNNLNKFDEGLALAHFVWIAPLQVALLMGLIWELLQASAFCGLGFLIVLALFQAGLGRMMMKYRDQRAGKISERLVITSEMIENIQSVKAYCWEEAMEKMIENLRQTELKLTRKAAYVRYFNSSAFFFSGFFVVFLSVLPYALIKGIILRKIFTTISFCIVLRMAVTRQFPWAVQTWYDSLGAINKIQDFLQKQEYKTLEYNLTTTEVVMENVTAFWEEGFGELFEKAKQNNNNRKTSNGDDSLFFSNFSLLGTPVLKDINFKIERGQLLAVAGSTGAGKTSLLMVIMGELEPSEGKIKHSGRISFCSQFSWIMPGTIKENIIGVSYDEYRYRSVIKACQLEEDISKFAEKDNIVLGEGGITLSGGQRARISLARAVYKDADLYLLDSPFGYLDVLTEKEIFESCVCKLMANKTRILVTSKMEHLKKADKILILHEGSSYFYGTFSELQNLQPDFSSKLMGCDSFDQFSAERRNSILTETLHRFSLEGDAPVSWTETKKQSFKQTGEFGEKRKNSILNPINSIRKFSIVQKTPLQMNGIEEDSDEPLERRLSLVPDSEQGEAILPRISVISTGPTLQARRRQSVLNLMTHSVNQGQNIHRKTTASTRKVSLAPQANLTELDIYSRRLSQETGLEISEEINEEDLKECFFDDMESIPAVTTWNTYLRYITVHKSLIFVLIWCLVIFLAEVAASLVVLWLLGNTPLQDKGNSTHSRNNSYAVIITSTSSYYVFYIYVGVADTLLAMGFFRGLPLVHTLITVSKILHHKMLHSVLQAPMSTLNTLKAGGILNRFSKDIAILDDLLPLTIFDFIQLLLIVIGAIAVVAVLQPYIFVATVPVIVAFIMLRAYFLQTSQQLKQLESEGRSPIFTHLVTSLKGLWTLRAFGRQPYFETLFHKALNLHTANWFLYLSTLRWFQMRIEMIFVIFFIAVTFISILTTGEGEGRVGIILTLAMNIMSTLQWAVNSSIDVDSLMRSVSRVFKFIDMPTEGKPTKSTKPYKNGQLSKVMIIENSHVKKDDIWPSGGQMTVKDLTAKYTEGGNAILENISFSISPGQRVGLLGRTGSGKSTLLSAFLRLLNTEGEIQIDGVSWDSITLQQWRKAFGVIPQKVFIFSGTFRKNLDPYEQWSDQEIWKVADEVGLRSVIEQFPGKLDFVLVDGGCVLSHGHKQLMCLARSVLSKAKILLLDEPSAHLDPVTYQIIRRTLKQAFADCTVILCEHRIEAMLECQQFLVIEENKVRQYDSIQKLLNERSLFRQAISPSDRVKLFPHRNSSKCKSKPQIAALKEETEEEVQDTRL
T2 sequence (P13569 whole entry G551D): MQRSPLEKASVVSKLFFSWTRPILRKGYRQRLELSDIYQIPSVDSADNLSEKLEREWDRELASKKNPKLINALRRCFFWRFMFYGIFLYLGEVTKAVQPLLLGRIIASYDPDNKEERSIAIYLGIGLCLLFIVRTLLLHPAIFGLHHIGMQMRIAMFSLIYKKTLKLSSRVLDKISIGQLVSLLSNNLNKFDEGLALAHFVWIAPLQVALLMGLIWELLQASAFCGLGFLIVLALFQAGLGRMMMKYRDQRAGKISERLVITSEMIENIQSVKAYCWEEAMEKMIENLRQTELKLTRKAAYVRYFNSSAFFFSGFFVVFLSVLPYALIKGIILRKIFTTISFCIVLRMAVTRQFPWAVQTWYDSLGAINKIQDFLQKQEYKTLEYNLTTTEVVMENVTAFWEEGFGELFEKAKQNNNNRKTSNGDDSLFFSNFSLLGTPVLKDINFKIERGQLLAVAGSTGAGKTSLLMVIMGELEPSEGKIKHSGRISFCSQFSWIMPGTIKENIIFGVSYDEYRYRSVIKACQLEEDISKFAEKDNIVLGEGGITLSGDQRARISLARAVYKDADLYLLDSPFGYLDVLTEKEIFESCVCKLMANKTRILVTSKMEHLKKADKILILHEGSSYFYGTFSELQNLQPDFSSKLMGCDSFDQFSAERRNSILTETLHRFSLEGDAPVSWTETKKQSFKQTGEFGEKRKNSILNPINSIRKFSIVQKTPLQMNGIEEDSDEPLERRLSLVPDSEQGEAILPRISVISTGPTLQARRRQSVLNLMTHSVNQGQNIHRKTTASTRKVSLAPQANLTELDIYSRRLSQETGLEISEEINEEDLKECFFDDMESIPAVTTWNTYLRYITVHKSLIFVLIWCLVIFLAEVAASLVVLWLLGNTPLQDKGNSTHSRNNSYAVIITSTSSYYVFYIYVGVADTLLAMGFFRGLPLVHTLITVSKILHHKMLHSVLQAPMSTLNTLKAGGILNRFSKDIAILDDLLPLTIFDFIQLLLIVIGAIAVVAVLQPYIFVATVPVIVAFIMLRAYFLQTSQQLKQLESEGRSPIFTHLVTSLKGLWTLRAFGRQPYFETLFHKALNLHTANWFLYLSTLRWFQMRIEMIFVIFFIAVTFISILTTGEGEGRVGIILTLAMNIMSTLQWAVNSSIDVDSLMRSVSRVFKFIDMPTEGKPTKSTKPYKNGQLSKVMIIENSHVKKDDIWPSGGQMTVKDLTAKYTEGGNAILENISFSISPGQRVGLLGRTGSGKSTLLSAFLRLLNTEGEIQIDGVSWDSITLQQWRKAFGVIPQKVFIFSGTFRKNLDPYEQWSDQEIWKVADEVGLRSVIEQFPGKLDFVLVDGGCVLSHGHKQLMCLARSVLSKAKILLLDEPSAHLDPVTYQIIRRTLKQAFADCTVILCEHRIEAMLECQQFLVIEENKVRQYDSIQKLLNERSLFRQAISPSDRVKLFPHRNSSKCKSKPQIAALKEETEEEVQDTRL

For the compound `CC1(C)Cc2c(sc(NC(=O)C3(O)CC3)c2C(N)=O)C(C)(C)O1` [Compound 4, 2-(1-hydroxycyclopropanecarboxamido)-5,5,7,7-tetramethyl-5,7-dihydro-4H-thieno[2,3-c]pyran-3-carboxamide], the EC50 on CFTR ΔF508 mutant [1] stood at 32 nM; on CFTR ΔF508 mutant [2], 22.6 nM; on CFTR G551D mutant, 1340 nM.

For the compound `CC1(C)Cc2c(sc(NC(=O)C3(CO)CC3)c2C(N)=O)C(C)(C)O1` [Compound 9, 2-(1-(hydroxymethyl)cyclopropanecarboxamido)-5,5,7,7-tetramethyl-5,7-dihydro-4H-thieno[2,3-c]pyran-3-carboxamide], the EC50 worked out at 28 nM at CFTR ΔF508 mutant [1], 15.1 nM at CFTR ΔF508 mutant [2] and 1000 nM at CFTR G551D mutant.

Regarding `CC1(C)Cc2c(sc(NC(=O)c3ccn[nH]3)c2C(N)=O)C(C)(C)O1` [Compound 2, N-(3-carbamoyl-5,5,7,7-tetramethyl-5,7-dihydro-4H-thieno[2,3-c]pyran-2-yl)-1H-pyrazole-5-carboxamide], the EC50 at CFTR ΔF508 mutant [1] came out at 10 nM; on CFTR ΔF508 mutant [2] it was 3.4 nM; on CFTR G551D mutant, 500 nM.

Turning to `CC1(C)Cc2c(sc(NC(=O)C(C)(C)CO)c2C(N)=O)C(C)(C)O1` [Compound 10, 2-(3-hydroxy-2,2-dimethylpropanamido)-5,5,7,7-tetramethyl-5,7-dihydro-4H-thieno[2,3-c]pyran-3-carboxamide], the results for the EC50 on CFTR ΔF508 mutant [1], at CFTR ΔF508 mutant [2] and at CFTR G551D mutant were 121 nM, 74.6 nM and 2650 nM, respectively.

As a reminder, the EC50 is the concentration that produces a half-maximal response.
